Results taken from patent US20080033026A1, “Antimicrobial compositions, methods and systems” (priority 2006, published 2008).

What was measured:
Test in all cases: Time-kill determination
Format in all cases: cell-based
[1] = tested on: Candida albicans (ATCC 10231)
Experimental: (§1) The assessment of efficacy of 9-decenoic acid against a spectrum of microorganisms was determined using the American Society for Testing and Materials (ASTM) procedure entitled “Standard Test Method for the Assessment of Microbiocidal Activity of Test Materials Using a Time-Kill Procedure,” October 1998. This procedure incorporates the recommendations described in the “Manual of Clinical Microbiology,” 5th ed., edited by A. B. Balows et al., ASM, Washington, and is directed by the Federal Register, June 1994.
(§2) Challenge organisms were prepared as follows. Cultures of the following organisms were obtained: Staphylococcus aureus (ATCC 6538), Pseudomonas aeruginosa (ATCC 15442), Staphylococcus epidermidis (ATCC 12228), Klebsiella pneumoniae (ATCC 4352), Escherichia coli 0157:H7 (ATCC 43895) and Candida albicans (ATCC 10231). The stock cultures were transferred to sterile tubes and sterile tryptic soy broth (TSB) was added to the cultures. The mixture was incubated for 18-24 hours at 37° C. (±2° C.). A portion of this culture was then transferred onto TSA plates and incubated for 18-24 hours at 37° C. (±2° C.). The plates were removed from incubation and the bacterial growth was washed from the agar surface using Butterfield's Phosphate Buffered Dilution Water (PBDW).
(§3) The bacterial suspension was adjusted to contain approximately 10^8 Colony Forming Units (CFU) per ml with PBDW. The concentration was adjusted to an optical density (OD) of 0.4-0.5 (versus a PBDW blank) at 620 nm in a UV-Vis spectrophotometer, and this optical density gave approximately 10^8 colony forming units per milliliter (cfu/ml). The standardized suspension was stored under appropriate conditions until it was used as the challenge inoculum.
(§4) Concentrated 9-decenoic acid (97%) was diluted in filter sterilized isopropanol to yield a 25,000 ppm stock solution. Subsequent dilutions to the 9-decenoic acid stock solutions were made with sterile Deionized Water (DI) to achieve concentrations of 0.1%, 0.05%, 0.01% and 0.001%. The pH was determined for each dilution; pH values ranged from 4.4-4.1. Additionally, 9-decenoic acid stock solution was adjusted to pH 7 with 1 N NaOH and serially diluted with sterile DI to achieve concentrations of 1%, 0.5%, 0.2%, 0.1%, 0.05% and 0.0025%. In addition, 9-decenoic acid stock solution was combined with Triclosan™ (obtained from Ciba Specialty Chemical Corporation, under the tradename Irgasan DP 300™) in various ratios, as indicated in Table 8. The pH of the combined solution was 7.
(§5) Compliant with the ASTM procedure cited, for each challenge microorganism a 9.9 ml aliquot of the prepared 9-decenoic acid suspension was added to a sterile tube. A 0.1 ml aliquot of the standardized inoculum was added to the 9-decenoic acid solution representing the start of the test exposure. The inoculated 9-decenoic acid solution was immediately mixed thoroughly. The inoculated suspension was held at room temperature for 0.5, 2, 5, 7 and 10-minute exposure times for tests run at pH level of approximately 4. The pH 7 tests were held at room temperature for 0.5 and 2 minutes.
(§6) At each exposure sample time, a 1.0 ml aliquot of the inoculated 9-decenoic acid suspension was transferred to 9.0 ml of D/E Neutralizing Broth. Additional ten-fold serial dilutions were made in PBDW and plated in duplicate on TSA. All plates were incubated for 48 hours at 37° C. (±2° C.) and visually examined for growth. The plates were enumerated, recorded and log kill determined for each time point.
(§7) The following study controls were conducted: culture purity, neutralizer sterility, initial suspension population, test population, neutralization verification and a negative control using isopropanol. Culture purity was verified by performing a streak plate for isolated colonies of each culture used. All cultures were determined to be pure based on consistent colony morphology typical for the test organism. The neutralizer sterility was confirmed by no growth in an incubated sample. […]

[2] = tested on: Klebsiella pneumoniae (ATCC 4352)
Experimental: as §1, §2, §3, §4, §5, §6, §7

[3] = tested on: Pseudomonas aeruginosa (ATCC 15442)
Experimental: as §1, §2, §3, §4, §5, §6, §7

[4] = tested on: Staphylococcus epidermidis (ATCC 12228)
Experimental: as §1, §2, §3, §4, §5, §6, §7

[5] = 0.01% 9-decenoic acid, pH 4.4, exposure 0.5 min
[6] = 0.01% 9-decenoic acid, pH 4.4, exposure 2 min
[7] = 0.01% 9-decenoic acid, pH 4.4, exposure 5 min
[8] = 0.01% 9-decenoic acid, pH 4.4, exposure 7 min
[9] = 0.01% 9-decenoic acid, pH 4.4, exposure 10 min
[10] = 0.05% 9-decenoic acid, pH 4.1, exposure 0.5 min
[11] = 0.05% 9-decenoic acid, pH 4.1, exposure 2 min
[12] = 0.05% 9-decenoic acid, pH 4.1, exposure 5 min
[13] = 0.05% 9-decenoic acid, pH 4.1, exposure 7 min
[14] = 0.05% 9-decenoic acid, pH 4.1, exposure 10 min
[15] = 0.1% 9-decenoic acid, pH 4.1, exposure 0.5 min
[16] = 0.1% 9-decenoic acid, pH 4.1, exposure 2 min
[17] = 0.1% 9-decenoic acid, pH 4.1, exposure 5 min
[18] = 0.1% 9-decenoic acid, pH 4.1, exposure 7 min
[19] = 0.1% 9-decenoic acid, pH 4.1, exposure 10 min

## C=CCCCCCCCC(=O)O [9-decenoic acid]
[1]; [5]
  Log reduction: 1.0 log
[1]; [6]
  Log reduction: 2.9 log
[1]; [7]
  Log reduction: >6.7 log
[1]; [8]
  Log reduction: >6.7 log
[1]; [9]
  Log reduction: >6.7 log
[1]; [10]
  Log reduction: >6.7 log
[1]; [11]
  Log reduction: >6.7 log
[1]; [12]
  Log reduction: >6.7 log
[1]; [13]
  Log reduction: >6.7 log
[1]; [14]
  Log reduction: >6.7 log
[1]; [15]
  Log reduction: >6.7 log
[1]; [16]
  Log reduction: >6.7 log
[1]; [17]
  Log reduction: >6.7 log
[1]; [18]
  Log reduction: >6.7 log
[1]; [19]
  Log reduction: >6.7 log
[2]; [5]
  Log reduction: 1.4 log
[2]; [6]
  Log reduction: >6.3 log
[2]; [7]
  Log reduction: >6.3 log
[2]; [8]
  Log reduction: >6.3 log
[2]; [9]
  Log reduction: >6.3 log
[2]; [10]
  Log reduction: >6.3 log
[2]; [11]
  Log reduction: >6.3 log
[2]; [12]
  Log reduction: >6.3 log
[2]; [13]
  Log reduction: >6.3 log
[2]; [14]
  Log reduction: >6.3 log
[2]; [15]
  Log reduction: >6.3 log
[2]; [16]
  Log reduction: >6.3 log
[2]; [17]
  Log reduction: >6.3 log
[2]; [18]
  Log reduction: >6.3 log
[2]; [19]
  Log reduction: >6.3 log
[3]; [5]
  Log reduction: >6.1 log
[3]; [6]
  Log reduction: >6.1 log
[3]; [7]
  Log reduction: >6.1 log
[3]; [8]
  Log reduction: >6.1 log
[3]; [9]
  Log reduction: >6.1 log
[3]; [10]
  Log reduction: >6.1 log
[3]; [11]
  Log reduction: >6.1 log
[3]; [12]
  Log reduction: >6.1 log
[3]; [13]
  Log reduction: >6.1 log
[3]; [14]
  Log reduction: >6.1 log
[3]; [15]
  Log reduction: >6.1 log
[3]; [16]
  Log reduction: >6.1 log
[3]; [17]
  Log reduction: >6.1 log
[3]; [18]
  Log reduction: >6.1 log
[3]; [19]
  Log reduction: >6.1 log
[4]; [5]
  Log reduction: >5.7 log
[4]; [6]
  Log reduction: >5.7 log
[4]; [7]
  Log reduction: >5.7 log
[4]; [8]
  Log reduction: >5.7 log
[4]; [9]
  Log reduction: >5.7 log
[4]; [10]
  Log reduction: >5.7 log
[4]; [11]
  Log reduction: >5.7 log
[4]; [12]
  Log reduction: >5.7 log
[4]; [13]
  Log reduction: >5.7 log
[4]; [14]
  Log reduction: >5.7 log
[4]; [15]
  Log reduction: >5.7 log
[4]; [16]
  Log reduction: >5.7 log
[4]; [17]
  Log reduction: >5.7 log
[4]; [18]
  Log reduction: >5.7 log
[4]; [19]
  Log reduction: >5.7 log
